The text below walks through data of patent US11912705B2, “Cathinone derivatives, pharmaceutical formulations, and methods” (The Corporation of Mercer University, priority 2020, dated 2024).

Structures are written as SMILES. pIC50, pKi: −log10 of the molar value. Where “and” joins values, the source holds several entries; their conditions need not be identical. Equal values may be shown once. Read-outs that look alike come from different tables or passages of the source.

Assay [1] concerns the target T1, Norepinephrine transporter (h) (Homo sapiens, UniProt P23975).
T1 construct: Eurofins/Cerep (contract testing)
The experiment in a line: Norepinephrine transporter (h) (antagonist radioligand) competition binding. The settings on record: for nH: Norepinephrine transporter (h) (antagonist radioligand). Here is the method: For antagonist assays, Kb affinity values were calculated from IC50 values using GraphPad Prism 9 (San Diego, Calif. USA).

The next assay deals with T2, human M2R (Homo sapiens, UniProt P08172).
T2 construct: host or cells: HEK293 (CRL-1573, ATCC), transient
T2 sequence (P08172 1-466): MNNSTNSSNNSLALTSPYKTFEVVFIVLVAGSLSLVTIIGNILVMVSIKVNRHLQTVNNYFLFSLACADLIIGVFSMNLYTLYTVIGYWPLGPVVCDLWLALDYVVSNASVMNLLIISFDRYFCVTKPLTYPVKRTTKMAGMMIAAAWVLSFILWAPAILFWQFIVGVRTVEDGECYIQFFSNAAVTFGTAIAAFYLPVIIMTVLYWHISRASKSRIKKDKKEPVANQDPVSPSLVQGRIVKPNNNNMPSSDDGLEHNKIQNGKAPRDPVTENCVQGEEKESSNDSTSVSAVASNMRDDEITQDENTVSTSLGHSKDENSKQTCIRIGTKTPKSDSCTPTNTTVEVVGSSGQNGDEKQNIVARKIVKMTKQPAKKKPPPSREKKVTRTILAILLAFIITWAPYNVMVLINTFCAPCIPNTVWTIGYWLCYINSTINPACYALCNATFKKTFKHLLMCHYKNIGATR
The experiment in a line: [3H]Scopolamine radioligand competition binding at M2R. The settings on record: for Ki: Affinities, Ki ± SEM, nM M2, human muscarinic M2 (N = 9), [3H]-N-methylscopolamine; for M2 Selectivity: range of Ki ratios of M1, M3, M4, M5 versus M2. As to the method:
(§1) Radioligand Competition Binding: Radioligand competition binding assays were conducted using membranes collected from transiently transfected HEK293 cells (P<20 from a procured stock, CRL-1573, ATCC, Manassas, Va., USA) as previously described (Chen, Y., et al. Drug Test Anal 11, 990-998). Briefly, cells ˜90% confluent in 10 cm plates were transfected with 5 μg human M1R, M2R, M3R, M4R or […] cDNA (cDNA resource center, Bloomsburg, Pa., USA) using a lipid-based method (LipoD293 reagent, SignaGen Laboratories, Rockville, Md., USA). Membranes were collected by centrifugation about 48 hours later and stored at −80° C. until used. […] After a 90-minute incubation at room temperature on a shaker, contents from the plates were rapidly filtered through GF/B fiberglass filter mats, pre-soaked with ice cold 50 mM Tris buffer (pH 7.4), using a Microbeta Filtermat-96 cell harvester (Perkin Elmer, Waltham, Mass., USA). Approximately 200 mL of ice cold, 50 mM Tris buffer was then vacuumed through filter mats to wash away unbound radioligand. Filter mats were dried on a hot plate and soaked in Betaplate (Perkin Elmer, Waltham, Mass., USA) scintillation fluid in plastic bags. Bags were sealed and placed in cassettes. Radioactivity was measured in a Microbeta2 Microplate Counter (Perkin Elmer, Waltham, Mass., USA), and counts per minute corresponding to each well on the plates were recorded. For full dose-response competition binding assays, increasing half-log unit concentrations of five unsubstituted PSCs were tested at M2Rs and M1Rs, with the same procedures described above.
(§2) Curve Fitting and Statistical Analyses: All data were analyzed by GraphPad 8.3.0 (San Diego, Calif., USA). Ki values were determined from data fit to both one- and two-site models. […] EC50 and IC50 values from functional assays were determined from data fit to the log(agonist) vs. response (three parameters) or log(inhibitor) vs. response (three parameters) model, respectively. Kb values were calculated from IC50 values using the Cheng-Prusoff equation with modification (see, e.g., Leff, P., and Dougall, I. G. (1993) Trends Pharmacol Sci 14, 110-112): Kb=IC50/((2+([A]/[A50])nH)1/nH−1)

Assay [2] concerns mice on the FVB background. Nature of the assay: Open field locomotor activity in mice. The assay is classed as in vivo. The settings on record: 2.8 mg/kg, s.c., 20-min open field. Here is the method: Since functional inhibition of neurotransmitter transporters, particularly DAT, is classically known to cause psychomotor stimulation, the ability of Compound (1) to induce this effect in mice was assessed, directly comparing results to α-PHP, a pyrrolidine-substituted analog of Compound (1). Adult male and female mice on the FVB background were injected subcutaneously and then immediately placed inside of an open field chamber, where their activity was recorded automatically for 20-min by an overhead camera connected to a PC running EthoVision XT software. […] Data are means (±SEM).

The target of a further assay is T3, human M1R (Homo sapiens, UniProt P11229).
T3 construct: host or cells: HEK293 (CRL-1573, ATCC), transient
T3 sequence (P11229 1-460): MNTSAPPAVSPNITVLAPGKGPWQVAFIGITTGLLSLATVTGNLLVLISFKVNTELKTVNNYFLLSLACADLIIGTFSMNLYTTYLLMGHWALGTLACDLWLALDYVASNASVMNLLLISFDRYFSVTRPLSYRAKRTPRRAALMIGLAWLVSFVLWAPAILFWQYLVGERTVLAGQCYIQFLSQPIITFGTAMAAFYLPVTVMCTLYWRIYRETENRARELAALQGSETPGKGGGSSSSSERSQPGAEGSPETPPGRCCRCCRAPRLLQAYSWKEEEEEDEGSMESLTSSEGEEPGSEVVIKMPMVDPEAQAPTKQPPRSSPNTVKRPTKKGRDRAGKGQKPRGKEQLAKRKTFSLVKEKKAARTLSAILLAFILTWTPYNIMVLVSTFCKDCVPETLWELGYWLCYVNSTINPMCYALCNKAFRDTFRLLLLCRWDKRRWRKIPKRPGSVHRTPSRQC
Nature of the assay: biochemical. The assay is classed as binding. Here is the method: as §1, §2

Another assay concerns the target T4, human M3R (Homo sapiens, UniProt P20309).
T4 construct: host or cells: HEK293 (CRL-1573, ATCC), transient
The experiment in a line: biochemical. The assay is classed as binding. As to the method:
as §1, §2

A further assay concerns the target T5, M2 (h) (Homo sapiens, UniProt P08172).
T5 construct: expressed in transfected cells; host or cells: CHO cells (human recombinant)
T5 sequence (P08172 1-466): T2 sequence (P08172 1-466)
The experiment in a line: M2 (h) antagonist effect, cAMP HTRF cellular functional assay. The assay is classed as cell-based. As to the method: (§3) Compounds (1) and (2) were tested at several concentrations for IC50 or EC50 determination at target receptors. […] For antagonist assays, Kb affinity values were calculated from IC50 values using GraphPad Prism 9 (San Diego, Calif. USA).
In general terms: Time-resolved FRET reads energy transfer from a long-lived donor to a nearby acceptor.

The target in a further assay is T6, Dopamine transporter (h) (Homo sapiens, UniProt Q01959).
T6 construct: Eurofins/Cerep (contract testing)
T6 sequence (Q01959 whole entry): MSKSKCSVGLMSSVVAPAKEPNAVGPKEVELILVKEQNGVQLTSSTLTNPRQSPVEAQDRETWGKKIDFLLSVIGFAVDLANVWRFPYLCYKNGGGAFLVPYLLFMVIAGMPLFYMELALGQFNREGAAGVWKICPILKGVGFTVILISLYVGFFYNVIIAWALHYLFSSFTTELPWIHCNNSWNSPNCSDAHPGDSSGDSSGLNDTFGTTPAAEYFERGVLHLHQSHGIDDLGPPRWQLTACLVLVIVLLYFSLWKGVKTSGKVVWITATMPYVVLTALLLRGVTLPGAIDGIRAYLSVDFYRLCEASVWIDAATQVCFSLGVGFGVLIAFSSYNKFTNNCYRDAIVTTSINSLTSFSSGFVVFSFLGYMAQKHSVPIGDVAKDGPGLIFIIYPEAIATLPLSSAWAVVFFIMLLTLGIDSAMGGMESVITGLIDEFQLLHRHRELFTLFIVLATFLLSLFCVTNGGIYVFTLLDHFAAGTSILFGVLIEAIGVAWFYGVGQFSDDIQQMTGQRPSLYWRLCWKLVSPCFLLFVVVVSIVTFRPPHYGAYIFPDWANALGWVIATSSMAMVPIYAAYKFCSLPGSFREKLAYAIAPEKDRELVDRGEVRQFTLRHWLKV
Nature of the assay: Dopamine transporter (h) (antagonist radioligand) competition binding. The conditions noted are these: for nH: Dopamine transporter (h) (antagonist radioligand). As to the method: as §3

Another assay deals with T7, 5-HT transporter (h) (Homo sapiens, UniProt P31645).
T7 construct: Eurofins/Cerep (contract testing)
T7 sequence (P31645 whole entry): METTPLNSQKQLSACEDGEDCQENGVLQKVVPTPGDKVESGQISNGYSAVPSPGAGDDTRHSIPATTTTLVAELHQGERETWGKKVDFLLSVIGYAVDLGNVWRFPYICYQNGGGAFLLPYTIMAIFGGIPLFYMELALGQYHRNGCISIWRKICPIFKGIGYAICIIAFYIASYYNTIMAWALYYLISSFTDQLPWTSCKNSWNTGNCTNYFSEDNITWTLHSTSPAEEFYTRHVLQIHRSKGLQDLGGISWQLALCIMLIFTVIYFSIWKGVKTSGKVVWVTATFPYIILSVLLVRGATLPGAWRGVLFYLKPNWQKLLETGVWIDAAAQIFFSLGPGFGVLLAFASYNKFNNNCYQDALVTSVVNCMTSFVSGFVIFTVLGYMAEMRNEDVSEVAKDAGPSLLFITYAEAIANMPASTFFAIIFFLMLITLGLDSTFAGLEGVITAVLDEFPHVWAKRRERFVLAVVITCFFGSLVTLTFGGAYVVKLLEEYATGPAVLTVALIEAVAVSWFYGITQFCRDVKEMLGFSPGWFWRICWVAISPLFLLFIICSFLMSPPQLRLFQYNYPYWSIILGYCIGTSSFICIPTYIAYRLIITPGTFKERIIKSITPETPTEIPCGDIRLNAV
Nature of the assay: Serotonin transporter (antagonist radioligand) competition binding. The conditions noted are these: for Affinity (Ki) SERT: Eurofins/Cerep, N.B. denotes no binding at 100 μM. As to the method:
as §3

Where [3] appears, read: human muscarinic M1 (N = 6), [3H]-N-methylscopolamine, read-out: Affinities, Ki ± SEM, nM M1.
[4] abbreviates: human muscarinic M3 (N = 5), [3H]-N-methylscopolamine, read-out: Affinities, Ki ± SEM, nM M3.

T4 sequence (P20309 whole entry): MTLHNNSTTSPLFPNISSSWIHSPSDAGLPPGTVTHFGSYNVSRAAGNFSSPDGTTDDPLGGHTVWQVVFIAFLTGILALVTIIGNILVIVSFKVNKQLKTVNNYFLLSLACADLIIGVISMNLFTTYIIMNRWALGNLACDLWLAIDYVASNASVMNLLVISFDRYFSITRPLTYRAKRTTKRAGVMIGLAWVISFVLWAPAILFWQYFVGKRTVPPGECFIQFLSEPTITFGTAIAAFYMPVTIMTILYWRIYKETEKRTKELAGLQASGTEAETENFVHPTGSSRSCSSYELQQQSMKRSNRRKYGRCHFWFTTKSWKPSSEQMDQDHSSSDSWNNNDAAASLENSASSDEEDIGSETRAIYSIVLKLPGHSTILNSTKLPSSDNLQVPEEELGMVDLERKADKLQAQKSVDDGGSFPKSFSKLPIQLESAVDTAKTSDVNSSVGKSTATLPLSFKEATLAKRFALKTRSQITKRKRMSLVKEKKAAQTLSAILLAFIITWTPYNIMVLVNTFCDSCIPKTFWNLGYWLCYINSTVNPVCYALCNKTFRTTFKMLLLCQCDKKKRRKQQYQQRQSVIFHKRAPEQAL
T1 sequence (P23975 whole entry): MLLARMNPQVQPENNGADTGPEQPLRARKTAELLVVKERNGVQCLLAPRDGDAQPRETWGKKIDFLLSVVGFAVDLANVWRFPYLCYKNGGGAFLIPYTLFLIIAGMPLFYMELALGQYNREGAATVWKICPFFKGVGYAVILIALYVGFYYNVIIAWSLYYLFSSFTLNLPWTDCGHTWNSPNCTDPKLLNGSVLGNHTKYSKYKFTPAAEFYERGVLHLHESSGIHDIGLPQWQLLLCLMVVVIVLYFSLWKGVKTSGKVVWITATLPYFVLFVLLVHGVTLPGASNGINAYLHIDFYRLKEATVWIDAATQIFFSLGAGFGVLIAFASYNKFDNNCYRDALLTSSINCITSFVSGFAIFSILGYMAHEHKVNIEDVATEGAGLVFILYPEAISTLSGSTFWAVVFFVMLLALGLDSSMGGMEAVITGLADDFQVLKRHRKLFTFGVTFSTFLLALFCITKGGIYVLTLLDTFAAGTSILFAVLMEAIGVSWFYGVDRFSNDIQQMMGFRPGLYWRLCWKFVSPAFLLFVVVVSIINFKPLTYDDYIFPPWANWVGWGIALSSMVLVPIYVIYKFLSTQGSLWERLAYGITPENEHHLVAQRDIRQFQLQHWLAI

As to `CCCCC(C(=O)c1ccccc1)N1CCCCC1` (stereo not drawn) [Compound (1), 1-phenyl-2-(piperidin-1-yl)hexan-1-one], the negative-log IC50 (pIC50) (as a rule, the IC50 on a negative log10 scale, so that one unit is a factor of ten) is 5.06 in assay [1], 5.77 against M2 (h), 7.14 on Dopamine transporter (h) and less than 4.00 at 5-HT transporter (h). The figures for the negative-log Ki (pKi) (in assay [1]; at Dopamine transporter (h)) were 5.19 and 7.42, respectively. Further, the nH in assay [1] worked out at 1.6; on Dopamine transporter (h) it was 1. Moreover, the Ki on human M2R is 70 nM and 69.9 nM; on human M1R (setting [3]), 1010 nM; at human M3R (setting [4]) it was 994 nM. For the same compound, the “M2 Selectivity” value at human M2R was 9.72-17.76. In assay [2], the locomotor activity result was “nearly indistinguishable from vehicle-treated mice”. Further, the antagonist equilibrium constant (Kb) (commonly the affinity of an antagonist, worked out from how it opposes an agonist) on M2 (h) turned out to be 120 nM. Further, the “Affinity (Ki) SERT” value on 5-HT transporter (h) was “neither compound exhibiting demonstrable binding at SERT”; on 5-HT transporter (h) (listed as Compound 1), “N.B”.

Take `CCCCC(C(=O)c1ccccc1)N1CCCCCC1` (stereo not drawn) [Compound (2), 2-(azepan-1-yl)-1-phenylhexan-1-one]: the pIC50 was 4.89 in assay [1], 5.70 against M2 (h), 7.00 at Dopamine transporter (h) and less than 4.00 on 5-HT transporter (h). In addition, the pKi – broadly, the Ki on a negative log10 scale, so that one unit is a factor of ten – was 5.01 in assay [1] and 7.27 on Dopamine transporter (h). For the same compound, the nH (in assay [1]; at Dopamine transporter (h)) was 0.9 in each case. The Ki at human M2R is 90 nM and 89.5 nM; at human M1R (setting [3]), 1490 nM; on human M3R (setting [4]), 988 nM. Further, the “M2 Selectivity” value at human M2R was 11.04-16.63. Further, the antagonist equilibrium constant (Kb) on M2 (h) was found to be 160 nM. For the same compound, the “Affinity (Ki) SERT” value was “neither compound exhibiting demonstrable binding at SERT” on 5-HT transporter (h) and “N.B” at 5-HT transporter (h) (listed as Compound 2).

For `CCCCC(C(=O)c1ccccc1)N1CCCC1` (stereo not drawn) [α-PHP, 1-phenyl-2-(pyrrolidin-1-yl)hexan-1-one], the “fold increase in M2R affinity compared to α-PPP” value on human M2R worked out at 302 fold. The negative logarithm of the Ki (pKi) at human M2R (Ki at M2Rs, full dose-response [3H]Scopolamine competition binding) was 6.60; at human M2R (estimated pKi at M2R, estimate from 1 and 10 μM concentrations (N = 2), N.C. = <5% displacement of radioligand at 10 μM), 6.33. Besides, in assay [2], the locomotor activity result was “robustly increased locomotor activity compared to vehicle”. Moreover, at human M1R, the “fold increase in M1R affinity from α-PPP” value was found to be 121 fold. The Ki is 2570 nM on human M1R (estimate from 1 and 10 μM concentrations (N = 2), N.C. = <5% displacement of radioligand at 10 μM, read-out: estimated pKi at M1R (converted)); 1580 nM on human M1R (full dose-response [3H]Scopolamine competition binding, α-PPP and α-PBP interpolated, read-out: pKi at M1R (converted)); 1660 nM at human M3R (estimate from 1 and 10 μM concentrations (N = 2), N.C. = <5% displacement of radioligand at 10 μM, read-out: estimated pKi at M3R (converted)).
